Values quoted from earlier work, collected in patent US20110053898A1, “TOPICAL COMPOSITION COMPRISING VITAMIN D ANALOGUE AND CORTICOSTEROIDS” (GLENMARK GENERICS LTD, priority 2009, published 2011).

Conditions: vitamin-D3 derivative versus calcitriol

C=C1/C(=C/C=C2\CCC[C@]3(C)[C@@H]([C@H](C)/C=C/C(O)C4CC4)CC[C@@H]23)C[C@@H](O)C[C@@H]1O (stereo partly shown) [Calcipotriene]
Power relative to the natural hormone calcitriol: about 1%
